Results on 33 molecules are retold here after ChEMBL document CHEMBL5143511, “Positioning of an unprecedented 1,5-oxaza spiroquinone scaffold into SMYD2 inhibitors in epigenetic space” (Eur J Med Chem, 2022).

Where only a bound is given, the exact number is not on record here.

Series [1] deals with T1, N-lysine methyltransferase SMYD2 (Homo sapiens, UniProt Q9NRG4). Description: Inhibition of SMYD2 (unknown origin) assessed as residual activity at 10 uM using 3H-SAM as substrate incubated for 1 hr by filter binding method relative to control.
The target in series [2] is T1, N-lysine methyltransferase SMYD2. Description: Inhibition of SMYD2 (unknown origin) using 3H-SAM as substrate incubated for 1 hr by filter binding method.
The subject of a further series is Ca-Ski. Description: cells. The series is classed as functional, cell-based. The settings on record: Homo sapiens, 72 h.
In the next series the test system is MDA-MB-231. Description: Antiproliferative activity against human MDA-MB-231 cells assessed as inhibition of cell growth incubated for 72 hrs by CellTiter-Glo luminescent cell viability assay. The series is classed as functional, cell-based. The settings on record: MDA-MB-231, 72 h. Background: ATP-based viability assays read luminescence as a measure of living cells.

Another series has as its system HEK293. Kind of series: Induction of apoptosis in HEK293 cells assessed as increase in cleaved PARP level incubated for 24 hrs by immunoblot analysis. In kind it is toxicity, cell-based. The settings on record: human, hek293, 24 h, DDE = dose-dependent effect, dose 0.0195-10 µM. On the technique in general: In western blotting, separated proteins are transferred to a membrane and probed.

T1 sequence (Q9NRG4 whole entry): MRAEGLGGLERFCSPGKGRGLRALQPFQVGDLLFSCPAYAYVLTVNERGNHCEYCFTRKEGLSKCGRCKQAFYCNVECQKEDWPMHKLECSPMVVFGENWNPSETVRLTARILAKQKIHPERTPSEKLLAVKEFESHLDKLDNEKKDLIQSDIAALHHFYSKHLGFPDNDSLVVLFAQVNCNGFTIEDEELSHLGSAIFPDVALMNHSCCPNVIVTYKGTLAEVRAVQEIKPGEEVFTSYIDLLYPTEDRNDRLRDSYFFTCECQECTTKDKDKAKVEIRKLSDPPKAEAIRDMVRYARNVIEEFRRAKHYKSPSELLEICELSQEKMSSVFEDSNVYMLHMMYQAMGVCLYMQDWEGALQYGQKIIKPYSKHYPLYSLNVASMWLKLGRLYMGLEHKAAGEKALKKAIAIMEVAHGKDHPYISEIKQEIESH
Description for Ca-Ski: Antiproliferative activity against human Ca-Ski cells assessed as inhibition of cell growth incubated for 72 hrs by CellTiter-Glo luminescent cell viability assay

For orientation: IC50 means the concentration at which inhibition is half-maximal. For `CC(C)N1C(=O)C(Cc2ccc(C#N)cc2)COC12C=CC(=O)C=C2` (stereo unspecified), the Activity in series [1] is 80.7%. In addition, the IC50 in series [2] was over 20 µM.
For the molecule `CC1COC2(C=CC(=O)C=C2)N(C(C)C)C1=O` (stereo unspecified), in series [1], the Activity was found to be 96.5%. Besides, in series [2], the IC50 is over 20 µM.
In turn, `CN1C(=O)C(CCO[Si](C)(C)C(C)(C)C)COC12C=CC(=O)C=C2` (stereo unspecified) yielded a concentration for half-maximal inhibition (IC50) in series [2] of over 30 µM.
Still for that read-out and setting: the result for `CC(C)[Si](OCCC1COC2(C=CC(=O)C=C2)N(C)C1=O)(C(C)C)C(C)C` (stereo unspecified) reads 0.678 µM.
Turning to `CC(C)N1C(=O)C(Cc2ccccc2CS(=O)(=O)c2ccccc2)COC12C=CC(=O)C=C2` (stereo unspecified), the Activity in series [1] was found to be 50.4%. The molecule also displayed a half-maximal inhibitory concentration (IC50) in series [2] of over 20 µM.
On to `N#Cc1cccc(-n2cc(CC3COC4(C=CC(=O)C=C4)N(c4ccccc4)C3=O)nn2)c1` (stereo unspecified), for which the IC50 in series [2] was over 30 µM.
Regarding `CN1C(=O)C(CCNc2cc(C(F)(F)F)cc(C(F)(F)F)c2)COC12C=CC(=O)C=C2` (stereo unspecified), the Activity in series [1] came to 6.94%. The values for the IC50 (in series [2]; with Ca-Ski; in the series with MDA-MB-231) were 2.13 µM, 0.785 µM and 0.667 µM, respectively.
On to `O=C1C=CC2(C=C1)OCC(Cc1cc(C(F)(F)F)cc(C(F)(F)F)c1)C(=O)N2c1ccccc1` (stereo unspecified), for which the IC50 in series [2] was determined as 18.5 µM; with Ca-Ski, 0.879 µM; in the series on MDA-MB-231 it was 1.64 µM.
Take `C=CCC1COC2(C=CC(=O)C=C2)N(C(C)C)C1=O` (stereo unspecified): the Activity in series [1] worked out at 101%. In addition, in series [2], the IC50 is over 20 µM.
On the same counts, the results for `CC(C)N1C(=O)C(Cc2ccc(F)cc2)COC12C=CC(=O)C=C2` (stereo unspecified) are 36% and over 20 µM.
As for `CC(C)N1C(=O)C(Cc2ccc(C(F)(F)F)cc2)COC12C=CC(=O)C=C2` (stereo unspecified), in series [1], the Activity was 33.8%. This molecule also registered an IC50 in series [2] of over 20 µM.
Regarding `CN1C(=O)C(CCO[Si](c2ccccc2)(c2ccccc2)C(C)(C)C)COC12C=CC(=NNc1ccccc1)C=C2` (stereo unspecified), in series [2], the IC50 amounted to 5.8 µM.
With `CC(C)N1C(=O)C(Cc2ccc([N+](=O)[O-])cc2)COC12C=CC(=O)C=C2` (stereo unspecified), the Activity in series [1] stood at 66.7%. In series [2], the IC50 is over 20 µM.
The matching figures for `CC(C)N1C(=O)C(Cc2cc(C(F)(F)F)ccc2Cl)COC12C=CC(=O)C=C2` (stereo unspecified): 27.8% and over 20 µM.
As to `CN1C(=O)C(CCNc2ccc(F)cc2)COC12C=CC(=O)C=C2` (stereo unspecified), the Activity in series [1] came to 20.6%. This molecule also showed an IC50 in series [2] of 11.6 µM.
As to `CN1C(=O)C(CCNc2cccc(Cc3ccccc3)c2)COC12C=CC(=O)C=C2` (stereo unspecified), the Activity in series [1] turned out to be 13.6%. This molecule came in with an IC50 in series [2] of 6.2 µM.
On to `CC(C)N1C(=O)C(Cc2cc(C(F)(F)F)cc(C(F)(F)F)c2)COC12C=CC(=O)C=C2` (stereo unspecified), for which the Activity in series [1] was 6.72%; with HEK293 it was “Dde”. In addition, the figures for the IC50 (in series [2]; in the series with Ca-Ski; in the series on MDA-MB-231) were 2.39 µM, 0.733 µM and 1.03 µM, respectively.
In the case of `CC(C)N1C(=O)C(Cc2ccc(Cl)cc2)COC12C=CC(=O)C=C2` (stereo unspecified), the Activity in series [1] came to 41.4%. In series [2], this molecule gave an IC50 of over 20 µM.
Regarding `CN1C(=O)C(CCNc2cc(F)cc(C(F)(F)F)c2)COC12C=CC(=O)C=C2` (stereo unspecified), the Activity in series [1] worked out at 53.5%. In series [2], this molecule gave an IC50 of 7.52 µM.
Turning to `CN1C(=O)C(C/C=N/n2c3ccccc3c3ccccc32)COC12C=CC(=O)C=C2` (stereo unspecified), the Activity in series [1] was determined as 19.9%. The IC50 in series [2] amounted to 3.06 µM; in the series on Ca-Ski it was 0.927 µM; with MDA-MB-231, 1.08 µM.
Consider `CN1C(=O)C(CCNc2ccc(-c3cccs3)cc2)COC12C=CC(=O)C=C2` (stereo unspecified), for which the Activity in series [1] stood at 16.1%. In series [2], this molecule displayed an IC50 of 2.31 µM.
Consider `CN1C(=O)C(CCNc2cccnc2)COC12C=CC(=O)C=C2` (stereo unspecified), for which the Activity in series [1] is 74.2%. Besides, the concentration for half-maximal inhibition (IC50) in series [2] is over 20 µM.
On the same counts, the results for `CC(C)N1C(=O)C(Cc2cccc(Br)c2)COC12C=CC(=O)C=C2` (stereo unspecified) are 42.5% and over 20 µM.
Turning to `CN1C(=O)C(CCO)COC12C=CC(=O)C=C2` (stereo unspecified), in series [2], the IC50 was over 30 µM.
Consider `CN1C(=O)C(CCNc2ccc(C(=O)c3ccccc3)cc2)COC12C=CC(=O)C=C2` (stereo unspecified), for which the Activity in series [1] was found to be 44.6%. Moreover, the IC50 in series [2] was over 20 µM.
For `O=C1COc2c([C@@H](O)CNCCN(C(=O)CCNCCc3ccc(Cl)c(Cl)c3)C3CCCCC3)ccc(O)c2N1`, the IC50 in series [2] turned out to be 0.003 µM.
For the molecule `CN[C@@H]1C[C@H]2O[C@@](C)([C@@H]1OC)n1c3ccccc3c3c4c(c5c6ccccc6n2c5c31)C(=O)NC4` [STAUROSPORINE], in the series on MDA-MB-231, the half-inhibitory concentration (IC50) is 0.000858 µM.
As to `CN1C(=O)C(CCNc2ccc(Cl)c(Cl)c2)COC12C=CC(=O)C=C2` (stereo unspecified), the Activity in series [1] was found to be 12.6%. The IC50 in series [2] was 3.82 µM.
On the same counts, the results for `CN1C(=O)C(CCNc2ccccc2)COC12C=CC(=O)C=C2` (stereo unspecified) are 45.1% and over 20 µM.
For the molecule `CC(C)N1C(=O)C(Cc2c(F)cccc2C(F)(F)F)COC12C=CC(=O)C=C2` (stereo unspecified), the Activity in series [1] amounted to 47.2%. Also, in series [2], the IC50 was over 20 µM.
The matching figures for `CN1C(=O)C(CCNc2cnc3ccccc3c2)COC12C=CC(=O)C=C2` (stereo unspecified): 64.6% and over 20 µM.
On to `COc1ccc(N2CCCCC2)c(NCCC2COC3(C=CC(=O)C=C3)N(C)C2=O)c1` (stereo unspecified), for which the Activity in series [1] was 14.2%. Further, the IC50 in series [2] was found to be 5.55 µM.
Turning to `CC(C)N1C(=O)C(CCO[Si](c2ccccc2)(c2ccccc2)C(C)(C)C)COC12C=CC(=O)C=C2` (stereo unspecified), the 50% inhibitory concentration (IC50) in series [2] is 0.399 µM.
